Test results: article PMC3062156, “Biochanin A, a Phytoestrogenic Isoflavone with Selective Inhibition of Phosphodiesterase 4, Suppresses Ovalbumin-Induced Airway Hyperresponsiveness” (Evidence-based Complementary and Alternative Medicine : eCAM, 2011)

Molecular target: T1, phosphodiesterase 4 (PDE4), high-affinity rolipram binding sites (PDE4H)
T1 construct: native PDE4 in particulate (cell membrane) portion of guinea pig whole brain; subtype not specified
Test: [3H]-rolipram radioligand displacement on guinea pig brain membranes; weak, […] displacement at […]
Set-up: species or system Cavia porcellus
Conditions: read-out: EC50 (the source's name)

- IC50: > 300 µM
Structure (SMILES): COc1ccc(-c2coc3cc(O)cc(O)c3c2=O)cc1 [Biochanin A]
